Experimental data published in PubChem BioAssay AID1963833 (Molecular Pharmacology Branch, DTP, NCI, 2024).
pIC50: −log10 of the molar value.

Test system: 883617-216-R-J1-PDC complex spheroid viability
Test: Anticancer human tumor 883617-216-R-J1-PDC patient-derived bladder carcinoma cell line growth inhibition [POLQ]
Conditions: for pIC50: curve of first compound; for viability, T/C: stronger effect = lower value
Summary of the method: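 PDC + HUVEC + MSC complex spheroids; POLQ inhibitors ± partner drugs; top conc. at/near clinical Cmax, else 10 microM (SN-38 1 microM), half-log dilutions; 37 degrees C, 5% CO2.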

[1] = second compound 0.0316 µM, first compound 0.0316 µM
[2] = second compound 0.0316 µM, first compound 0.1 µM
[3] = second compound 0.0316 µM, first compound 0.316 µM
[4] = second compound 0.0316 µM, first compound 1 µM
[5] = second compound 0.0316 µM, first compound 3.16 µM
[6] = second compound 0.0316 µM, first compound 10 µM
[7] = second compound 0.1 µM, first compound 0.0316 µM
[8] = second compound 0.1 µM, first compound 0.1 µM
[9] = second compound 0.1 µM, first compound 0.316 µM
[10] = second compound 0.1 µM, first compound 1 µM
[11] = second compound 0.1 µM, first compound 3.16 µM
[12] = second compound 0.1 µM, first compound 10 µM
[13] = second compound 0.316 µM, first compound 0.0316 µM
[14] = second compound 0.316 µM, first compound 0.1 µM
[15] = second compound 0.316 µM, first compound 0.316 µM
[16] = second compound 0.316 µM, first compound 1 µM
[17] = second compound 0.316 µM, first compound 3.16 µM
[18] = second compound 0.316 µM, first compound 10 µM
[19] = second compound 1 µM, first compound 0.0316 µM
[20] = second compound 1 µM, first compound 0.1 µM
[21] = second compound 1 µM, first compound 0.316 µM
[22] = second compound 1 µM, first compound 1 µM
[23] = second compound 1 µM, first compound 3.16 µM
[24] = second compound 1 µM, first compound 10 µM
[25] = second compound 3.16 µM, first compound 0.0316 µM
[26] = second compound 3.16 µM, first compound 0.1 µM
[27] = second compound 3.16 µM, first compound 0.316 µM
[28] = second compound 3.16 µM, first compound 1 µM
[29] = second compound 3.16 µM, first compound 3.16 µM
[30] = second compound 3.16 µM, first compound 10 µM
[31] = second compound 10 µM, first compound 0.0316 µM
[32] = second compound 10 µM, first compound 0.1 µM
[33] = second compound 10 µM, first compound 0.316 µM
[34] = second compound 10 µM, first compound 1 µM
[35] = second compound 10 µM, first compound 3.16 µM
[36] = second compound 10 µM, first compound 10 µM
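Further: spheroids exposed to compounds for seven days before readout.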
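Wherever viability, T/C is given: 100% = DMSO vehicle control viability.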

O=c1[nH]cc(F)c(=O)[nH]1 + Cc1cccc(N(C)C(=O)C2C(O)CCN2c2nc(C)cc(C(F)(F)F)c2C#N)c1
pIC50 (second compound 0.0316 µM): < 5.00 | pIC50 (second compound 0.1 µM): < 5.00 | pIC50 (second compound 0.316 µM): < 5.00 | pIC50 (second compound 1 µM): < 5.00 | pIC50 (second compound 3.16 µM): < 5.00 | pIC50 (second compound 10 µM): < 5.00 | viability, T/C [1]: 97% | viability, T/C [2]: 104% | viability, T/C [3]: 94.7% | viability, T/C [4]: 89.7% | viability, T/C [5]: 79.4% | viability, T/C [6]: 57.8% | viability, T/C [7]: 93.3% | viability, T/C [8]: 97.2% | viability, T/C [9]: 89.3% | viability, T/C [10]: 102% | viability, T/C [11]: 75.9% | viability, T/C [12]: 62.3% | viability, T/C [13]: 104% | viability, T/C [14]: 107% | viability, T/C [15]: 100% | viability, T/C [16]: 109% | viability, T/C [17]: 75.1% | viability, T/C [18]: 64.8% | viability, T/C [19]: 101% | viability, T/C [20]: 105% | viability, T/C [21]: 94.6% | viability, T/C [22]: 88.2% | viability, T/C [23]: 70.7% | viability, T/C [24]: 66.4% | viability, T/C [25]: 101% | viability, T/C [26]: 90.1% | viability, T/C [27]: 104% | viability, T/C [28]: 85.6% | viability, T/C [29]: 79.5% | viability, T/C [30]: 65.7% | viability, T/C [31]: 115% | viability, T/C [32]: 102% | viability, T/C [33]: 93.8% | viability, T/C [34]: 89.9% | viability, T/C [35]: 78.6% | viability, T/C [36]: 74.6%

O=C(c1cc(Cc2n[nH]c(=O)c3ccccc23)ccc1F)N1CCN(C(=O)C2CC2)CC1 + COC1C(OC(N)=O)C(O)C(Oc2ccc3c(O)c(NC(=O)c4ccc(O)c(CC=C(C)C)c4)c(=O)oc3c2C)OC1(C)C
pIC50 (second compound 0.0316 µM): < 5.00 | pIC50 (second compound 0.1 µM): < 5.00 | pIC50 (second compound 0.316 µM): < 5.00 | pIC50 (second compound 1 µM): < 5.00 | pIC50 (second compound 3.16 µM): < 5.00 | pIC50 (second compound 10 µM): < 5.00 | viability, T/C [1]: 106% | viability, T/C [2]: 98% | viability, T/C [3]: 103% | viability, T/C [4]: 99.1% | viability, T/C [5]: 72.5% | viability, T/C [6]: 62.9% | viability, T/C [7]: 91% | viability, T/C [8]: 88.5% | viability, T/C [9]: 88.9% | viability, T/C [10]: 97.4% | viability, T/C [11]: 81.6% | viability, T/C [12]: 63% | viability, T/C [13]: 96.1% | viability, T/C [14]: 87.6% | viability, T/C [15]: 100% | viability, T/C [16]: 92.3% | viability, T/C [17]: 78% | viability, T/C [18]: 70.3% | viability, T/C [19]: 97.4% | viability, T/C [20]: 85.5% | viability, T/C [21]: 109% | viability, T/C [22]: 91.9% | viability, T/C [23]: 96.1% | viability, T/C [24]: 63.5% | viability, T/C [25]: 91.2% | viability, T/C [26]: 87.8% | viability, T/C [27]: 95.8% | viability, T/C [28]: 89% | viability, T/C [29]: 79.1% | viability, T/C [30]: 65.3% | viability, T/C [31]: 94% | viability, T/C [32]: 91.6% | viability, T/C [33]: 94.8% | viability, T/C [34]: 73.3% | viability, T/C [35]: 98.7% | viability, T/C [36]: 74.5%

CC(C)n1c(=O)n(C)c2cnc3cc(F)c(-c4ccc(OCCCN5CCCCC5)nc4)cc3c21 + Cc1cccc(N(C)C(=O)C2C(O)CCN2c2nc(C)cc(C(F)(F)F)c2C#N)c1
pIC50 (second compound 0.0316 µM): < 5.00 | pIC50 (second compound 0.1 µM): < 5.00 | pIC50 (second compound 0.316 µM): < 5.00 | pIC50 (second compound 1 µM): < 5.00 | pIC50 (second compound 3.16 µM): < 5.00 | pIC50 (second compound 10 µM): < 5.00 | viability, T/C [1]: 105% | viability, T/C [2]: 96.2% | viability, T/C [3]: 108% | viability, T/C [4]: 90% | viability, T/C [5]: 83.9% | viability, T/C [6]: 59.9% | viability, T/C [7]: 108% | viability, T/C [8]: 111% | viability, T/C [9]: 105% | viability, T/C [10]: 98.7% | viability, T/C [11]: 91.5% | viability, T/C [12]: 62% | viability, T/C [13]: 107% | viability, T/C [14]: 93.6% | viability, T/C [15]: 97.2% | viability, T/C [16]: 110% | viability, T/C [17]: 92.8% | viability, T/C [18]: 59% | viability, T/C [19]: 95.9% | viability, T/C [20]: 108% | viability, T/C [21]: 96.1% | viability, T/C [22]: 98.7% | viability, T/C [23]: 96.6% | viability, T/C [24]: 59.5% | viability, T/C [25]: 100% | viability, T/C [26]: 107% | viability, T/C [27]: 105% | viability, T/C [28]: 108% | viability, T/C [29]: 95.6% | viability, T/C [30]: 65.3% | viability, T/C [31]: 108% | viability, T/C [32]: 112% | viability, T/C [33]: 114% | viability, T/C [34]: 98.3% | viability, T/C [35]: 105% | viability, T/C [36]: 63.4%
